According to patent publication US8367873B2, “Phenyl-substituted bicyclooctane-1,3-dione derivatives” (Bayer Cropscience AG, priority 2008, dated 2013):
“And” between values parts separate entries of the source, which are not always exact repeats. Equal values may be shown once.

Columns and labels:
[1] = system: monocotylidonous and dicotylidonous weed and crop plants; experiment: Herbicidal pre-emergence action (other test plants); assay type: in vivo; details: pre-emergence method, 80 g/ha, greenhouse, visual assessment vs untreated controls
Summary of the method: (§1)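 Test compounds, as wettable powder suspensions with 0.2% wetting agent at a water rate of 600 l/ha, were applied in different amounts to the covering soil over freshly sown seeds in sandy loam. Emergence damage was rated visually in percent against untreated plants after three weeks under greenhouse conditions.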

[2] = system: monocotylidonous and dicotylidonous weed and crop plants; experiment: Herbicidal post-emergence action (other test plants); assay type: in vivo; details: post-emergence method
Summary of the method: (§2)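 Greenhouse-grown weeds were treated post-emergence at the one-leaf stage, two to three weeks after sowing in sandy loam. Compounds formulated as WP were sprayed at various rates in 600 l/ha water with 0.2% wetting agent. Damage was scored visually after about three weeks versus untreated controls (0% = like control, 100% = dead).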

[3] = system: Lolium multiflorum; experiment: Herbicidal post-emergence action; assay type: in vivo; details: post-emergence method
Summary of the method: as §2

[4] = system: Alopecurus myosuroides; experiment: Herbicidal post-emergence action; assay type: in vivo; details: post-emergence method
Summary of the method: as §2

[5] = system: Echinocloa crus-galli; experiment: Herbicidal post-emergence action; assay type: in vivo; details: post-emergence method
Summary of the method: as §2

[6] = Penetration of active compounds through enzymatically isolated cuticles of apple tree leaves; assay type: in vitro ADME, apple trees of the cultivar Golden Delicious; details: 20° C., 60% rh
Protocol: Increase of penetration into the plant by ammonium or phosphonium salts and synergistic increase of penetration into the plant by ammonium/phosphonium salts in combination with penetrants.
In this test, the penetration of active compounds through enzymatically isolated cuticles of apple tree leaves was measured.
Use was made of leaves which, fully developed, were cut from apple trees of the cultivar Golden Delicious. The cuticles were isolated by • initially filling leaf discs punched out and stained with dye on the underside by vacuum infiltration with a pectinase solution (0.2 to 2% strength) buffered to a pH between 3 and 4, • […] allowing the leaf discs treated in this manner to stand until the original leaf structure has dissolved and the non-cellular cuticles have detached.
Only the cuticles, free from hairs and stoma, of the upper sides of the leaves were then used. They were washed repeatedly alternating with water and a buffer solution of pH 7. The clean cuticles obtained were then mounted on Teflon plates and smoothed and dried with a gentle stream of air.
In the next step, the cuticle membranes obtained in this manner were placed into stainless steel diffusion cells (=transport chambers) for membrane transport studies. To this end, the cuticles were placed with a pincet into the centre of the edges, coated with silicone fat, of the diffusion cells and closed with a ring, which had also been treated with fat. The arrangement was chosen such that the morphological outside of the cuticles was facing outwards, i.e. exposed to air, whereas the original inside was facing the interior of the diffusion cells.
The diffusion cells were filled with a 30% strength ethylene glycol/water solution. To determine the penetration, in each case 10 μl of the spray liquor of the composition below were applied to the outside of the cuticles. The spray liquor was prepared using local tap water of medium hardness.
After the spray liquors had been applied, the water was allowed to evaporate and the chambers were inverted and placed into thermostatic […] in which temperature and atmospheric humidity over the cuticles could be adjusted using a gentle stream of air onto the cuticles with the spray coating (20° C., 60% rh). At regular intervals, an autosampler took aliquots and the active compound content was determined by HPLC.
The stated numbers are average values of eight to ten measurements.

[7] = system: Lolium multiflorum; experiment: Herbicidal pre-emergence action; assay type: in vivo; details: pre-emergence method, 80 g/ha, greenhouse, visual assessment vs untreated controls
Summary of the method: as §1

[8] = system: Alopecurus myosuroides; experiment: Herbicidal pre-emergence action; assay type: in vivo; details: pre-emergence method, 80 g/ha, greenhouse, visual assessment vs untreated controls
Summary of the method: as §1

[9] = system: Echinocloa crus-galli; experiment: Herbicidal pre-emergence action; assay type: in vivo; details: pre-emergence method, 80 g/ha, greenhouse, visual assessment vs untreated controls
Summary of the method: as §1

[10] = system: Setaria viridis; experiment: Herbicidal pre-emergence action; assay type: in vivo; details: pre-emergence method, 80 g/ha, greenhouse, visual assessment vs untreated controls
Summary of the method: as §1

[11] = system: maize; experiment: Crop compatibility small plot trial outdoors with maize, post-emergence, with and without safener; assay type: in vivo; details: 60 g ai/ha (with safener 60 + 60)
Protocol: Method crop compatibility small plot trial outdoors: • Customary sowing using a single seed seeder • Plot size: 11.25 m^2/two repetitions
Treatment was carried out using a plot sprayer. The safener was applied together with the test substance as a tank mix using 300 l of water/ha (amounts of herbicide and safener are stated in g of ai/ha). Post-emergence application was carried out at the five-leaf stage of maize. Crop compatibility was assessed visually 14 and 27 days after the treatment (in percent compared to an untreated control), 100% damage=the plants have died, 0% damage=like control plants). • Outside trial with maize (Magixx Duo is cycloxidim-tolerant) • Post-Emergence Method

[12] = system: Setaria viridis; experiment: Herbicidal post-emergence action; assay type: in vivo; details: post-emergence method, 80 g/ha
Summary of the method: as §2

[13] = system: cereals; experiment: Container trials with cereals in the greenhouse, use of safeners (Mefenpyr 1 day prior to herbicide application); assay type: in vivo; details: 10 days after application
Protocol: Seeds of monocotylidonous and dicotylidonous weed and crop plants are placed in sandy loam in wood fibre pots, covered with soil and cultivated in a greenhouse under good growth conditions. Two to three weeks after sowing, the test plants are treated at the one-leaf stage. The test compounds, formulated as wettable powders (WP), are then with a water application rate of 600 l/ha (converted), with 0.2% of wetting agent added, sprayed onto the green parts of the plants in different amounts. After the test plants have been kept in the greenhouse under optimum growth conditions for about three weeks, the effect of the preparations is assessed visually in comparison to untreated controls (herbicidal effect in percent: 100% effect=the plants have died, 0% effect=like control plants).
If it is to be additionally tested as to whether safeners can improve the plant compatibility of test substances in the case of crop plants, the following options are used for applying the safeners: • Seeds of the crop plants are, before sowing, dressed with safener substance (the amount of safener stated in percent, based on the weight of the seed) • Before the application of the test substances, the crop plants are sprayed with the safener at a certain application rate per hectare (usually one day before the application of the test substances) • The safener is applied together with the test substance as a tank mix (the amount of safener stated in g/ha or as a ratio, based on the herbicide).
Container Trials with Cereals in the Greenhouse

With `CCc1cc(C)cc(CC)c1C1=C(O)[C@H]2C[C@@]3(COC(C)(C)O3)C[C@H]2C1=O` [I-a-1] the “herbicidal effect AVEFA” value [1] was 80%, the pest or weed control at 80 g/ha ([2]; 504 h, Avena fatua, read-out: herbicidal effect against AVEFA (Avena fatua)) was 90% and the pest or weed control at 80 g/ha ([3]; Lolium multiflorum, 504 h, read-out: herbicidal effect against LOLMU (Lolium multiflorum)) was 100%. The pest or weed control at 80 g/ha ([4]; Alopecurus myosuroides, 504 h, read-out: herbicidal effect against ALOMY (Alopecurus myosuroides)) was 100%, the pest or weed control at 80 g/ha ([5]; Echinochloa crus-galli, 504 h, read-out: herbicidal effect against ECHCG (Echinochloa crus-galli)) was 100% and the “Penetration after 24 h” value ([6]; a.i. (0.2 g/l) + AS = ammonium sulphate (0.7 g/l)) was 4%. The “Penetration after 24 h” value ([6]; a.i. (0.2 g/l) + Edenor ME SU 500 EW (2 g/l) + AS (0.7 g/l)) was 13%, the “Penetration after 24 h” value ([6]; a.i. (0.2 g/l) + Edenor Me SU 500 EW (2 g/l)) was 11.5% and the “Penetration after 24 h” value ([6]; a.i. (0.2 g/l) alone, average of eight to ten measurements) was 2.5%. The “herbicidal effect LOLMU” value [7] was 100%, the “herbicidal effect ALOMY” value [8] was 90% and the “herbicidal effect ECHCG” value [9] was 50%. The “herbicidal effect SETVI” value [10] was 60%.

For `CCc1cc(C)cc(CC)c1C1=C(O)[C@H]2CC3(C[C@H]2C1=O)OCCO3` (relative stereo) [I-a-8], the “herbicidal effect AVEFA” value [1] was 60%, the “% damage” value ([11]; maize cultivar Magixx Duo (cycloxidim-tolerant), 14 days after application) was 0% and the “% damage” value ([11]; maize cultivar Magixx Duo (cycloxidim-tolerant), 27 days after application) was 0%. The “% damage” value ([11]; maize cultivar Oldham, 14 days after application) was 94%, the “% damage” value ([11]; maize cultivar Oldham, 27 days after application) was 93% and the “herbicidal effect against AVEFA (Avena fatua)” value ([2]; 80 g/ha) was 100%. For the same molecule, the “herbicidal effect against LOLMU (Lolium multiflorum)” value ([3]; 80 g/ha) was 100%, the “herbicidal effect against ALOMY (Alopecurus myosuroides)” value ([4]; 80 g/ha) was 100% and the “herbicidal effect against ECHCG (Echinochloa crus-galli)” value ([5]; 80 g/ha) was 100%. The “herbicidal effect against SETVI (Setaria viridis)” value [12] was 100%, the “herbicidal effect LOLMU” value [7] was 100% and the “herbicidal effect ALOMY” value [8] was 100%. The “herbicidal effect ECHCG” value [9] was 90%, the “herbicidal effect SETVI” value [10] was 90% and the “Summer barley observed (%)” value ([13]; 25 g of a.i./ha) was 10%. For the same molecule, the “Summer barley observed (%)” value ([13]; 50 g of a.i./ha) was 20%, the “Summer barley observed (%)” value ([13]; 100 g of a.i./ha) was 20% and the “Summer wheat observed (%)” value ([13]; 12.5 g of a.i./ha) was 20%. The “Summer wheat observed (%)” value ([13]; 25 g of a.i./ha) was 40% and 20%, the “Summer wheat observed (%)” value ([13]; 50 g of a.i./ha) was 50% and 30% and the “Summer wheat observed (%)” value ([13]; 100 g of a.i./ha) was 60% and 30%.
